Laboratory results as given in patent US12076307B2, “Compositions for prevention or treatment of acute radiation syndrome and other radiation exposure” (priority 2017, dated 2024).
Like-named read-outs stand apart in the source and are kept apart here.

How the values were obtained:
Sprague Dawley rats = test: Respiratory function in rats; type: in vivo, rat; conditions: single oral doses up to 2000 mg/kg
Protocol: EC-18 was orally administered to Sprague Dawley rats (n=6 males/group) at single doses of 0, 500, 1000 and 2000 mg/kg. Tidal volume, respiration rate per minute and minute volume were measured with whole-body plethysmograph at 0 (pre-dose), 1, 2 and 4-hr post-dose.

[1] = Fertility and early embryonic developmental toxicity study; type: in vivo, rat; conditions: both sexes, SD, rat, in vivo; both males and females
From the text: (§1) Various toxicology studies have been performed. All studies were GLP-compliant unless otherwise noted.

SD rat [2] = test: as above; type: in vivo; conditions: Oral; 0, 500, 1000, 2000 mg/kg
From the text: as §1

[3] = In vitro metabolite screening, rat liver microsomes; type: in vitro ADME; conditions: N=2
Protocol: [^14C]EC-18 or the positive control (7-ethoxycoumarin; 7-EC) reacted with microsomes prepared from hepatocytes of rats, dogs, monkeys, and humans, with or without cofactors, for 60 and 120 min. Then, the residual EC-18 concentration over time was measured by LC-RID ([^14C]EC-18) or LC-MS/MS (7-EC) (FIG. 63 and FIG. 64).
The LC-RID chromatographic profiles of radioactive metabolites produced in the 2-hr incubation reaction mixtures of the same test systems A, B, and C used to assess the metabolic and non-metabolic elimination rates of EC-18 were compared to the LC-UV chromatographic profiles of the synthetic reference material. […] The relative radioactivity of EC-18 accounted for 42-67% of total radioactivity. The peaks designated as M2, M3, and M5 were also determined in all species, and their relative radioactivity accounted for 12-34% of total radioactivity. The peaks of M4 and M6 were determined in monkeys and humans. M1 was abundantly detected in all species, but it was assumed to be a peak of early elution. The LC-UV chromatograms of reaction mixtures in each test system (FIGS. 65A-65C) and the relative radioactivity of the screened metabolites are shown in Table 25.

CXCL8 = CXCL8 release in HaCaT cells treated with CM or rhHMGB1; type: cell-based, human
Protocol: An additional experiment was tested for assessing whether EC-18 treatment leads to early termination of the RIPK1/3-MLKL-mediated downstream necroptosis pathway. This was performed by using DAMP-containing conditioned media (CM) harvested from HaCaT cells, irradiated for 48 hrs, and analyzed after 2 or 72 hrs of EC-18 treatment. […] To further confirm that DAMPs in CM contribute to the activation of a necroptosis signaling pathway in a paracrine manner, recombinant human HMGB1 (rhHMGB1) was treated directly to the normal HaCaT cells. The rhHMGB1 elevated the phosphorylation of RIPK1/3 and MLKL after 2 hrs and subsequently released HMGB1 and HSP90 (FIGS. 35C-35D). To evaluate whether EC-18 mitigates the activation of RIPK1/3 and MLKL, 10 or 100 μg/mL of EC-18 was treated before the addition of CM or rhHMGB1. As a result, EC-18 lowered the phosphorylation of RIPK/3 and MLKL in both CM- and rhHMGB1-treated cells after 2 hrs. Release of HMGB1 and Hsp90 was also subsided by EC-18 after 72 hrs of post addition of CM or rhHMGB1 to the cells (FIGS. 35A-35D). TLR4-induced necroptosis signaling pathway caused by DAMP release produces cytokines, such as CXCL8, a chemotactic cytokine for neutrophils. As CXCL8 increases upon tissue damage, it was measured in cells treated with CM or rhHMGB1 as a measure of inflammation. CXCL8 of CM from cells treated with chemo and radiotherapy was used for this evaluation. […] Moreover, rhHMGB1 increased the production of CXCL8, modulated by EC-18.

[4] = Embryo-fetal developmental toxicity study, SD rat; type: in vivo; conditions: SD, rat, in vivo; definitive study; Oral 11 days
From the text: as §1

SD rat [5] = test: Embryo-fetal developmental toxicity study, SD rat; type: in vivo; conditions: for mortality: 0, 500, 1000, 2000 mg/kg
From the text: as §1

[6] = Whole-body autoradiography of rats after single oral [14C]EC-18; type: in vivo, rat; conditions: 200 mg/kg oral
Protocol: Male albino rats in fasted conditions were administered a single dose of [^14C]EC-18 (oral dose of 200 mg/kg, vehicle: olive oil). The distribution and levels of radioactivity in the body were observed by whole-body autoradiography performed at 0.25, 1, 8, and 24 hrs after [^14C]EC-18 administration.

Balb/c mice, TBI = test: Estimation of dose reduction factor (DRF); type: in vivo, mouse
Protocol: Analysis of several TBI, 24-hr delayed administration of EC-18 at 250 mg/kg in Balb/c mice yields an estimate of the dose reduction factor (DRF) of EC-18.

[7] = Plasma and lymphatic concentrations of EC-18 in beagle dogs after single administration; type: in vivo, dog; conditions: for Tmax / AUC(0-t) / half-life / Cmax: male, beagle, dog; for Tmax: po
Protocol: A single dose of EC-18 (1000, 2000, 4000 mg/kg by mouth or 100 mg/kg IV) was administered to male beagle dogs in fed condition and the concentration of EC-18 in plasma and lymph was measured using UHPLC-MS/MS.

For `CCCCC/C=C\C/C=C\CCCCCCCC(=O)OC(COC(C)=O)COC(=O)CCCCCCCCCCCCCCC` (centres unmarked) [EC-18, 1-palmitoyl-2-linoleoyl-3-acetylglycerol], the respiratory function (Sprague Dawley rats) was “did affect the respiratory function”, the NOAEL [1] was 2000 mg/kg/day and the mortality (SD rat [2]) was “No dead animals”. The “Mean Peak Area in LC-RID” value ([3]; A (NADPH added), [14C]EC-18 2 hrs) was 61.8%, the “Mean Peak Area in LC-RID” value ([3]; B (NADPH, PAPS, UDPGA added), 2 hrs) was 51.9% and the “Mean Peak Area in LC-RID” value ([3]; C (no cofactor added), 2 hrs) was 58.8%. For the same compound, the CXCL8 level (CXCL8; CM-treated cells) was “decreased in a dose-dependent manner”, the CXCL8 production (CXCL8; rhHMGB1-treated cells) was “modulated” and the NOAEL at 11 days [4] was 2000 mg/kg/day. The “significant differences in implantation rate, male-to-female ratio of fetuses, fetal mortality rate vs control” value (SD rat [5]; DRF study, Oral 11 days) was “There were no”, the mortality (SD rat [5]; DRF study, Oral 11 days (day-7 to day-17 of pregnancy)) was “No dead animals” and the findings (SD rat [5]; definitive study, Oral 11 days) was “No specific findings”. For the same compound, the mortality (SD rat [5]; definitive study, Oral 11 days) was “No dead animals”, the time to elimination [6] was at most 24 h and the “DRF at LD30/30” value (Balb/c mice, TBI; 250 mg/kg) was 1.45. For the same compound, the “DRF at LD70/30” value (Balb/c mice, TBI; 250 mg/kg) was 1.18, the “DRF at LD95/30” value (Balb/c mice, TBI; 250 mg/kg) was 1.05 and the “LD Estimate LD30/30, Presence of EC-18” value (Balb/c mice, TBI; 250 mg/kg) was 5.26 Gy. The “LD Estimate LD50/30, Presence of EC-18” value (Balb/c mice, TBI; 250 mg/kg) was 5.50 Gy, the “LD Estimate LD70/30, Presence of EC-18” value (Balb/c mice, TBI; 250 mg/kg) was 5.76 Gy and the “LD Estimate LD95/30, Presence of EC-18” value (Balb/c mice, TBI; 250 mg/kg) was 6.09 Gy. The “Lethality, Presence of EC-18” value (Balb/c mice, TBI; 6.11 Gy, 250 mg/kg 24-hr delayed) was 6/40 (15%), the “Lethality, Presence of EC-18” value (Balb/c mice, TBI; 6.5 Gy, 250 mg/kg 24-hr delayed) was 8/20 (40%) and the “Lethality, Presence of EC-18” value (Balb/c mice, TBI; 7 Gy, 250 mg/kg) was 10/10 (100%). The “Lethality, Presence of EC-18” value (Balb/c mice, TBI; 8 Gy, 250 mg/kg) was 10/10 (100%), the “Lethality, Presence of EC-18” value (Balb/c mice, TBI; 10 Gy, 250 mg/kg) was 4/4 (100%) and the F ([7]; 1000 mg/kg po, Plasma) was 7.8%. For the same compound, the F ([7]; 2000 mg/kg po, Plasma) was 6.3%, the F ([7]; 4000 mg/kg po, Plasma) was 23.6% and the Tmax ([7]; lymph, 1000 mg/kg, 1000 mg/kg po, Lymph, read-out: Tmax) was 3.3 ± 0.9 h. The Tmax ([7]; lymph, 1000 mg/kg, 1000 mg/kg po, lymph, read-out: median Tmax) was 4 h, the Tmax ([7]; lymph, 2000 mg/kg, 2000 mg/kg po, Lymph, read-out: Tmax) was 3.3 ± 0.9 h and the Tmax ([7]; lymph, 2000 mg/kg, 2000 mg/kg po, lymph, read-out: median Tmax) was 4 h. It also gave a Tmax ([7]; lymph, 4000 mg/kg, 4000 mg/kg po, Lymph, read-out: Tmax) of 3.3 ± 1.9 h, a Tmax ([7]; lymph, 4000 mg/kg, 4000 mg/kg po, lymph, read-out: median Tmax) of 2 h and a Tmax ([7]; plasma, 1000 mg/kg, 1000 mg/kg po, Plasma, read-out: Tmax) of 1.3 h. The Tmax ([7]; plasma, 2000 mg/kg, 2000 mg/kg po, Plasma, read-out: Tmax) was 1.3 h, the Tmax ([7]; plasma, 4000 mg/kg, 4000 mg/kg po, Plasma, read-out: Tmax) was 6.7 h and the AUC(0-t) ([7]; 100 mg/kg IV, Plasma) was 7540 ± 1860 ng·h/mL. The half-life ([7]; 100 mg/kg IV, Plasma) was 13.9 ± 2.3 h, the AUC(0-t) ([7]; 1000 mg/kg po, Lymph) was 118000 ± 16700 ng·h/mL and the Cmax ([7]; 1000 mg/kg po, Lymph) was 35100 ± 5160 ng/mL. It also gave an AUC(0-t) ([7]; 1000 mg/kg po, Plasma) of 5800 ± 2810 ng·h/mL, a Cmax ([7]; 1000 mg/kg po, Plasma) of 1750 ± 710 ng/mL and an AUC(0-t) ([7]; 2000 mg/kg po, Lymph) of 389000 ± 125000 ng·h/mL. The Cmax ([7]; 2000 mg/kg po, Lymph) was 40100 ± 8620 ng/mL, the AUC(0-t) ([7]; 2000 mg/kg po, Plasma) was 9490 ± 3850 ng·h/mL and the Cmax ([7]; 2000 mg/kg po, Plasma) was 2110 ± 750 ng/mL. For the same compound, the AUC(0-t) ([7]; 4000 mg/kg po, Lymph) was 431000 ± 81300 ng·h/mL, the Cmax ([7]; 4000 mg/kg po, Lymph) was 46600 ± 1730 ng/mL and the half-life ([7]; 4000 mg/kg po, Lymph) was 3.3 ± 0.2 h. The AUC(0-t) ([7]; 4000 mg/kg po, Plasma) was 71100 ± 31700 ng·h/mL and the Cmax ([7]; 4000 mg/kg po, Plasma) was 6760 ± 3330 ng/mL.
